Measured values taken from patent publication US20250313535A1, “ALPHA 4 BETA 7 INTEGRIN MODULATORS AND USES THEREOF” (DICE MOLECULES SV, INC., priority 2022, published 2025).
pIC50: −log10 of the molar value.

Legend:
α4β7 integrin = α4β7 integrin (Homo sapiens (Human), UniProt P13612+P26010); assay: Integrin Adhesion Assay: Protocol 4 (MAdCAM-coated plate, RPMI-8866 cells with stable LOF mutation of the ITGB1 gene); assay type: cell-based; conditions: Protocol 4; RPMI-8866 cells with LOF mutation of ITGB1, MAdCAM; read-out: Mean IC50 α4β7 KO
Chain of α4β7 integrin (P13612 34-1032): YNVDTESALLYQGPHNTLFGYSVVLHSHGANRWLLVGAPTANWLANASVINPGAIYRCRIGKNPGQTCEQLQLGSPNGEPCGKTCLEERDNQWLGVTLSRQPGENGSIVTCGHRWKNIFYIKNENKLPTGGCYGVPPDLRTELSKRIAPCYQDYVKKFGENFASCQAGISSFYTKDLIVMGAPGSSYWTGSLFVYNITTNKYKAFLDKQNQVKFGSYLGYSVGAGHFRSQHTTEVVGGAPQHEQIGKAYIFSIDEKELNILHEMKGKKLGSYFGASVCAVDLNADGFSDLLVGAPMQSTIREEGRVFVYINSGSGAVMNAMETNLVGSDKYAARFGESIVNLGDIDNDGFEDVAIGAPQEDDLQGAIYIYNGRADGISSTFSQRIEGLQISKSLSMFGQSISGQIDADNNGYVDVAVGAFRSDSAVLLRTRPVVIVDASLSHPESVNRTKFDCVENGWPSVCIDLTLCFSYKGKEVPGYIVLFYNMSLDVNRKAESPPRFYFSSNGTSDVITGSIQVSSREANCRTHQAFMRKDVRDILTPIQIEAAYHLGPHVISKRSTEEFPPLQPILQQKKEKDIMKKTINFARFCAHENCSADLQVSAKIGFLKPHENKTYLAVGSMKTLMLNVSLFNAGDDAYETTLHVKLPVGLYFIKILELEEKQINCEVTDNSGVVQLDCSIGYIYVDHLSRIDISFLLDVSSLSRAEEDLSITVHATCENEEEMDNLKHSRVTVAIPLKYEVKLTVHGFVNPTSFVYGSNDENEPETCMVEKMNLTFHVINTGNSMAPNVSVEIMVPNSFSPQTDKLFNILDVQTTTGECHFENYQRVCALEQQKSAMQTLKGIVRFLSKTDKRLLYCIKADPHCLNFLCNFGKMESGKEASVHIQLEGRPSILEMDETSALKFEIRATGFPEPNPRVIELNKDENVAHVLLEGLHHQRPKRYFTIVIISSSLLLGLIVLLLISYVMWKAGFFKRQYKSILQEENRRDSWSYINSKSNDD
Chain of α4β7 integrin (P26010 20-798): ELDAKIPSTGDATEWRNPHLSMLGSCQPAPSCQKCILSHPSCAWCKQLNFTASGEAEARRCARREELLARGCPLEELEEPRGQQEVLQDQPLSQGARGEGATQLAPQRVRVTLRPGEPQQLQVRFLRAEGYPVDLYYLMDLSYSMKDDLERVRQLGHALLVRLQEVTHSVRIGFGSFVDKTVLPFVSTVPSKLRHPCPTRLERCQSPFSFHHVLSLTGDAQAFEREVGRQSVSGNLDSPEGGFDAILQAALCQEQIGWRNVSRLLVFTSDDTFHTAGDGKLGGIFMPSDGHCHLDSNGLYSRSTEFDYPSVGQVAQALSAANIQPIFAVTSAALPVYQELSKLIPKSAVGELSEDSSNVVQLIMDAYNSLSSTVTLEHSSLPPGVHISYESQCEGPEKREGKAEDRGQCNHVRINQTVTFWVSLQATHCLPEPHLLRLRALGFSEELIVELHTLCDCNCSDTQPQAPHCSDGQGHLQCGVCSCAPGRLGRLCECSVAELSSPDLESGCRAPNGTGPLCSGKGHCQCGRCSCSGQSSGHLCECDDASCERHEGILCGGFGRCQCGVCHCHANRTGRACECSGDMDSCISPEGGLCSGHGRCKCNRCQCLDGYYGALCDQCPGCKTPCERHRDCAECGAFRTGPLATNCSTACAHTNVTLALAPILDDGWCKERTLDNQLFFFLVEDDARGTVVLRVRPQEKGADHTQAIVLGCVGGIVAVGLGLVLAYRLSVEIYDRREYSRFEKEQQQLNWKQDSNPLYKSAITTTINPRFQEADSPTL
Outline: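 RPMI-8866 cells with CRISPR/Cas9 knockout of ITGB1 (2×10^6/mL) were added to MAdCAM-coated wells with compound (1% DMSO) in HEPES/NaCl buffer with 1 mM MnCl2, 0.1 mM CaCl2 and 1% BSA, then incubated 1 h at 37 °C. After four washes, adherent cells were quantified by CellTiter-Glo luminescence. Percent inhibition versus DMSO and control compound was fitted to 4-parameter curves.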

α4β1 integrin = α4β1 integrin (Homo sapiens (Human), UniProt P05556+P13612); assay: Integrin Adhesion Assay: Protocol 5 (VCAM-coated plate, RPMI-8866 cells with stable LOF mutation of the ITGB7 gene); assay type: cell-based; conditions: Protocol 5; RPMI-8866 cells with LOF mutation of ITGB7, VCAM; read-out: Mean IC50 α4β1 KO
Chain of α4β1 integrin (P13612 34-1032): as the sequence (P13612 34-1032) above
Chain of α4β1 integrin (P05556 21-798): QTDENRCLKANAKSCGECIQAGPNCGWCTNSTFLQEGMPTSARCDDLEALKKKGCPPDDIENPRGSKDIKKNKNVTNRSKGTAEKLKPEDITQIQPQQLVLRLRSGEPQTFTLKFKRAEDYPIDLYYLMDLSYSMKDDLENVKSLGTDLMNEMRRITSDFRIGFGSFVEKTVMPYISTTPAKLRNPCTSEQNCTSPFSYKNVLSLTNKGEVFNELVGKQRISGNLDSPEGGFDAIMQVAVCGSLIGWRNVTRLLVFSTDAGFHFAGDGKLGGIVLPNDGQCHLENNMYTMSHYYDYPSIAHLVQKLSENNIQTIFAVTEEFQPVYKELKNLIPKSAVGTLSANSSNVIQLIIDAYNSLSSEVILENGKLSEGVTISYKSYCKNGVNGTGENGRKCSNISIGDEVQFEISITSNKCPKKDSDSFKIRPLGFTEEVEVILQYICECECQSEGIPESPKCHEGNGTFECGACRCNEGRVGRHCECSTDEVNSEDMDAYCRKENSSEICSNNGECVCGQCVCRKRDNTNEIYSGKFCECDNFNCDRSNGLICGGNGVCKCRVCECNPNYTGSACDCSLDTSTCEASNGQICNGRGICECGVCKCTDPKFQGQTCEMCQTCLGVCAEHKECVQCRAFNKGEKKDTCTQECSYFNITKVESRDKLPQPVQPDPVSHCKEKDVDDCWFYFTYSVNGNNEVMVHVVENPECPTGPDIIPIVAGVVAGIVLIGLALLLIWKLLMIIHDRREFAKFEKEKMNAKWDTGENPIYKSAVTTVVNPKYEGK
Outline: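 RPMI-8866 B cells with CRISPR/Cas9 ITGB7 knockout (clonal, verified by flow cytometry) adhered to VCAM-coated wells for 1 h at 37° C in HEPES/NaCl buffer with 1 mM MnCl2, 0.1 mM CaCl2, 1% BSA, 1% DMSO. Bound cells quantified by CellTiter-Glo luminescence after washing; % inhibition versus DMSO and control, 4-parameter fit.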

Structure (SMILES) | pIC50 (α4β7 integrin) | pIC50 (α4β1 integrin)
COc1cc(CCN2CCCCC2)ccc1-c1cccc2c(C[C@H](NC(=O)c3c(C)cccc3F)C(=O)O)cccc12 [Compound 740] | > 8.00 | < 6.00
COc1cc(C(F)(F)F)cc(CCN2CCCCC2)c1-c1cccc2c(C[C@H](NC(=O)C3(C(F)(F)F)CCN(CC(F)(F)F)CC3)C(=O)O)cccc12 [Compound 741] | 7.00 to 8.00 | < 6.00
COc1cccc(CCCN2CCC(F)(F)CC2)c1-c1cccc2c(C[C@H](NC(=O)C3(C(F)(F)F)CCN(CC(F)(F)F)CC3)C(=O)O)cccc12 [Compound 742] | 7.00 to 8.00 | < 6.00
O=C(O)[C@H](Cc1cccc2c(-c3nccc4ccc(CCCN5C6CCCC5CC6)cc34)cccc12)NC(=O)C1(C(F)(F)F)CCN(CC(F)(F)F)CC1 [Compound 744] | > 8.00 | < 6.00
O=C(O)[C@H](Cc1cccc2c(-c3ncc(CN4CCCCC4)c4c3CCCC4)cccc12)NC(=O)C1(C(F)(F)F)CCN(CC(F)(F)F)CC1 [Compound 746] | > 8.00 | < 6.00
O=C(O)[C@H](Cc1cccc2c(-c3nccc4ccc(CCCN5CCCCC5)cc34)cccc12)NC(=O)C1(C(F)(F)F)CCN(CC(F)F)CC1 [Compound 748] | > 8.00 | < 6.00
O=C(O)[C@H](Cc1cccc2c(-c3ccccc3OCCN3CCCCC3)cccc12)NC(=O)C1(C(F)(F)F)CCN(CC(F)(F)F)CC1 [Compound 749] | 7.00 to 8.00 | < 6.00
COc1ccc2c(c1-c1cccc3c(C[C@H](NC(=O)C4(C(F)(F)F)CCN(CC(F)(F)F)CC4)C(=O)O)cccc13)CN(CC(F)(F)F)CC2 [Compound 750] | 7.00 to 8.00 | < 6.00
CCOCc1cc(CN2CCCCC2)c(-c2cccc3c(C[C@H](NC(=O)C4(C(F)(F)F)CCN(CC(F)(F)F)CC4)C(=O)O)cccc23)c(OC)c1 [Compound 751] | 7.00 to 8.00 | < 6.00
COc1ccc2c(c1-c1cccc3c(C[C@H](NC(=O)C4(C(F)(F)F)CCN(CC(F)(F)F)CC4)C(=O)O)cccc13)CCN(CC(F)F)C2 [Compound 752] | 7.00 to 8.00 | < 6.00
COc1ccc2c(c1-c1cccc3c(C[C@H](NC(=O)C4(C(F)(F)F)CCN(CC(F)(F)F)CC4)C(=O)O)cccc13)CN(CC(F)F)CC2 [Compound 753] | 7.00 to 8.00 | < 6.00
CN1CCc2cc(-c3cccc4c(C[C@H](NC(=O)C5(C(F)(F)F)CCN(CC(F)(F)F)CC5)C(=O)O)cccc34)ncc2C1 [Compound 754] | 7.00 to 8.00 | < 6.00
Cc1cc(CCN2CCCCC2)cnc1-c1cccc2c(C[C@H](NC(=O)C3(C(F)(F)F)CCN(CC(F)F)CC3)C(=O)O)cccc12 [Compound 756] | > 8.00 | < 6.00
CN1CCC(c2cnc(-c3cccc4c(C[C@H](NC(=O)C5(C(F)(F)F)CCN(CC(F)(F)F)CC5)C(=O)O)cccc34)c(C(F)(F)F)c2)CC1 [Compound 757] | > 8.00 | 6.00 to 7.00
CN1CCCC(c2cnc(-c3cccc4c(C[C@H](NC(=O)C5(C(F)(F)F)CCN(CC(F)(F)F)CC5)C(=O)O)cccc34)c(C(F)(F)F)c2)C1 (stereo partly shown) [Compound 758] | > 8.00 | 6.00 to 7.00
Cc1cc(C2CCN(C)CC2)cnc1-c1cccc2c(C[C@H](NC(=O)C3(C(F)(F)F)CCN(CC(F)(F)F)CC3)C(=O)O)cccc12 [Compound 759] | > 8.00 | < 6.00
O=C(O)[C@H](Cc1cccc2c(-c3ncc(CN4CCCCC4)cc3Cl)cccc12)NC(=O)C1(C(F)(F)F)CCN(CC(F)(F)F)CC1 [Compound 761] | 7.00 to 8.00 | < 6.00
O=C(O)[C@H](Cc1cccc2c(-c3ncc(C(=O)N4CCN(C5CC5)CC4)c4ccccc34)cccc12)NC(=O)C1(C(F)(F)F)CCN(CC(F)(F)F)CC1 [Compound 762] | 7.00 to 8.00 | < 6.00
O=C(O)[C@H](Cc1cccc2c(-c3ncc(C(=O)N4CCN(C5CC5)CC4)c4ccccc34)cccc12)NC(=O)C1(C(F)(F)F)CCN(CC(F)F)CC1 [Compound 763] | 7.00 to 8.00 | < 6.00
COc1c(-c2cccc3c(C[C@H](NC(=O)C4(C(F)(F)F)CCN(CC(F)F)CC4)C(=O)O)cccc23)cc(CN2CCCCC2)cc1C(F)(F)F [Compound 764] | 7.00 to 8.00 | < 6.00
COc1ccc2ccccc2c1-c1cccc2c(C[C@H](NC(=O)C3(C(F)(F)F)CCN(CC(F)(F)F)CC3)C(=O)O)cccc12 [Compound 765] | 7.00 to 8.00 | < 6.00
O=C(O)[C@H](Cc1cccc2c(-c3cccc4c3OCCO4)cccc12)NC(=O)C1(C(F)(F)F)CCN(CC(F)(F)F)CC1 [Compound 766] | 7.00 to 8.00 | < 6.00
CCOCc1cc(OC)c(-c2cccc3c(C[C@H](NC(=O)C4(C(F)(F)F)CCN(CC(F)(F)F)CC4)C(=O)O)cccc23)cc1CN1CCCCC1 [Compound 768] | > 8.00 | 6.00 to 7.00
O=C(O)[C@H](Cc1cccc2c(-c3nccc4ccc(CCCN5CCC6(CC5)CC6)cc34)cccc12)NC(=O)C1(C(F)(F)F)CCN(C2COC2)CC1 [Compound 773] | > 8.00 | 6.00 to 7.00
COc1ccc2ccnc(-c3cccc4c(C[C@H](NC(=O)C5(C(F)(F)F)CCN(CC(F)(F)F)CC5)C(=O)O)cccc34)c2c1 [Compound 777] | 7.00 to 8.00 | < 6.00

The remaining lines, values ahead:

pIC50 (α4β7 integrin) | pIC50 (α4β1 integrin) | Structure (SMILES)
> 8.00 | 6.00 to 7.00 | COC(=O)[C@H](Cc1cccc2c(-c3ncc(CN(C)C)c4ccccc34)cccc12)NC(=O)C1(C(F)(F)F)CCN(CC(F)F)CC1 [Compound 778]
> 8.00 | 6.00 to 7.00 | COC(=O)[C@H](Cc1cccc2c(-c3c(OC)ccc(CN4CCC(C)C(F)(F)CC4)c3OC)cccc12)NC(=O)C1(C(F)(F)F)CCN(CC(F)(F)F)CC1 (stereo partly shown) [Compound 779]
7.00 to 8.00 | < 6.00 | COc1ccc(CN2CCC(F)(F)CC2)c(OC)c1-c1cccc2c(C[C@H](NC(=O)C3(C(F)(F)F)CCN(CC(F)(F)F)CC3)C(=O)O)cccc12 [Compound 780]
7.00 to 8.00 | < 6.00 | COc1ccc(CN2CC(F)C2)c(OC)c1-c1cccc2c(C[C@H](NC(=O)C3(C(F)(F)F)CCN(CC(F)(F)F)CC3)C(=O)O)cccc12 [Compound 781]
> 8.00 | 6.00 to 7.00 | COc1ccc(CN2CCCC2)c(OC)c1-c1cccc2c(C[C@H](NC(=O)C3(C(F)(F)F)CCN(CC(F)(F)F)CC3)C(=O)O)cccc12 [Compound 782]
7.00 to 8.00 | < 6.00 | COc1ccc(CN2CCC(F)(F)C2)c(OC)c1-c1cccc2c(C[C@H](NC(=O)C3(C(F)(F)F)CCN(CC(F)(F)F)CC3)C(=O)O)cccc12 [Compound 783]
> 8.00 | 6.00 to 7.00 | COc1ccc(CN2CCCCC2)c(OC)c1-c1cccc2c(C[C@H](NC(=O)C3(C(F)(F)F)CCN(CC(F)(F)F)CC3)C(=O)O)cccc12 [Compound 784]
7.00 to 8.00 | 6.00 to 7.00 | COc1ccc(CN2CCOCC2)c(OC)c1-c1cccc2c(C[C@H](NC(=O)C3(C(F)(F)F)CCN(CC(F)(F)F)CC3)C(=O)O)cccc12 [Compound 785]
7.00 to 8.00 | < 6.00 | O=C(O)[C@H](Cc1cccc2c(-c3nccc4ccc(CN5CCCCC5)cc34)cccc12)NC(=O)C1(C(F)(F)F)CCN(CC(F)(F)F)CC1 [Compound 786]
> 8.00 | < 6.00 | O=C(O)[C@H](Cc1cccc2c(-c3ncc(CN4CCCCC4)c4ccccc34)cccc12)NC(=O)C1(C(F)(F)F)CCN(CC(F)(F)F)CC1 [Compound 787]
> 8.00 | < 6.00 | COc1ccc(CN2CCCC(F)C2)c(OC)c1-c1cccc2c(C[C@H](NC(=O)C3(C(F)(F)F)CCN(CC(F)(F)F)CC3)C(=O)O)cccc12 (stereo partly shown) [Compound 788]
> 8.00 | 6.00 to 7.00 | COc1ccc(CN2CCC(C)(C)CC2)c(OC)c1-c1cccc2c(C[C@H](NC(=O)C3(C(F)(F)F)CCN(CC(F)(F)F)CC3)C(=O)O)cccc12 [Compound 789]
> 8.00 | 6.00 to 7.00 | COc1ccc(CN2CCCC(C)C2)c(OC)c1-c1cccc2c(C[C@H](NC(=O)C3(C(F)(F)F)CCN(CC(F)(F)F)CC3)C(=O)O)cccc12 (stereo partly shown) [Compound 790]
> 8.00 | < 6.00 | COc1ccc(CN2CCCC(C)(C)C2)c(OC)c1-c1cccc2c(C[C@H](NC(=O)C3(C(F)(F)F)CCN(CC(F)(F)F)CC3)C(=O)O)cccc12 [Compound 791]
7.00 to 8.00 | < 6.00 | COc1c(CN2CCCCC2)cc2cccnc2c1-c1cccc2c(C[C@H](NC(=O)C3(C(F)(F)F)CCN(CC(F)(F)F)CC3)C(=O)O)cccc12 [Compound 792]
7.00 to 8.00 | < 6.00 | O=C(O)[C@H](Cc1cccc2c(-c3ncccc3CN3CCCCC3)cccc12)NC(=O)C1(C(F)(F)F)CCN(CC(F)(F)F)CC1 [Compound 793]
> 8.00 | 6.00 to 7.00 | COc1cc(CN2CCCCC2)cc(OC)c1-c1cccc2c(C[C@H](NC(=O)C3(C(F)(F)F)CCN(CC(F)(F)F)CC3)C(=O)O)cccc12 [Compound 794]
> 8.00 | 6.00 to 7.00 | COc1cc(CN2CCC(F)(F)CC2)cc(OC)c1-c1cccc2c(C[C@H](NC(=O)C3(C(F)(F)F)CCN(CC(F)(F)F)CC3)C(=O)O)cccc12 [Compound 795]
> 8.00 | 6.00 to 7.00 | COc1cc(CN2CCCC2)cc(OC)c1-c1cccc2c(C[C@H](NC(=O)C3(C(F)(F)F)CCN(CC(F)(F)F)CC3)C(=O)O)cccc12 [Compound 796]
